Patent US6133273A, “Pyrazolopyrimidine-2,4-dione sulfonamides” (American Home Products Corporation, priority 1999, dated 2000)

Columns and labels:
[1] = tested on: PDE-IV; experiment: Inhibition of Phosphodiesterase IV (PDE-IV) isolated from human U937 cells; type: biochemical; details: U937 cell PDE-IV, 1 μM [3H]-cAMP, 37° C., test compound 0.001 μM to 10 μM
Experimental: This assay was used to biochemically assess the ability of a test compound to inhibit PDE-IV isolated from a U937 cell line, where PDE-IV refers to the cGMP-insensitive, cAMP-selective PDE.
Cell Culture: U937 cells were grown in RPMI 1640 medium supplemented with 10% heat-inactivated fetal calf serum and Penicillin/Streptomycin (100 units/100 μg per mL) in a humidified 5% CO2 atmosphere at 37° C. Starter cells were maintained in continuous logarithmic growth by seeding them in 75 cm^2 vented tissue culture flasks at a concentration of 3×10^4 cells/mL and passing them every 3-4 days when the cells reached approximately 8×10^5 cells/mL. For experiments, 3-4 day starter cells were seeded in 225 cm^2 flasks at 1×10^5 cells/mL and harvested 3-4 days later at approx. 6×10^5 cells/mL.
Isolation of PDE-IV: U937 cells were activated with 10 μM dibutyryl cAMP for a period of 4 hours (to up-regulate PDE-IV) and then harvested by centrifugation at 1200×g for 10 min in 250 mL conical centrifuge tubes. The pellet from each 200 mL flask was resuspended in 5 mL buffer A [10 mM Tris-HCl, 5 mM MgCl2, 4 mM EGTA, 5 mM 2-mercaptoethanol, 1 μM leupeptin, 1 μM pepstatin A, and 5 μM phenylmethyl sulfonyl fluoride (PMSF) (pH 7.8)], and the cells were lysed using 3 cycles of freezing (3 min in dry ice/acetone) followed by thawing (warm water). […] To determine which families of PDEs were present, fractions may be assayed for hydrolytic activity with 1 μM [^3 H]-cAMP or 1 μM [^3 H]-cGMP. Additionally, 1 μM [^3 H]-cAMP assays were conducted in the presence of 10 μM rolipram, 10 μM cGMP, or calmodulin (1 unit/0.4 mL plus 10 μM CaCl2).
When prepared in this manner, approximately 80% of total cAMP PDE activity is eluted by Buffer B containing 0.7 M sodium acetate. This PDE activity consists of>90% PDE-IV (as evidenced by its susceptibility to inhibition by rolipram.
PDE assay: PDE activity was measured using a modification of the radioisotope procedure previously described by Thompson et al. (Thompson, W. J., Terasaki, W. L., Epstein, P. M. and Strada, S. J. Adv, Cyclic Nucleotide Res. 1979, 10, 69). Reaction mixtures (0.4 mL) contain 40 mM Tris-HCl (pH 7.8), 4 mM 2-mercaptoethanol, 5 mM MgCl2, 0.1 μM leupeptin, 0.1 μM pepstatin A, 0.1 μM PMSF, 1 μM [3H]-cAMP or 1 μM [^3 H]-cGMP (~200,000 DPM), and enzyme to initiate the reaction. ^3 H-cAMP substrate was prepared as follows: A stock solution of ^3 H-cyclic nucleotide (1000 μCi/mL) was diluted 1:10 in 50% EtOH. 200 μl of this diluted stock solution was added to a cold (unlabeled) cyclic nucleotide solution, made at a concentration of 4 μM. 100 μl of this solution was used per assay tube to achieve a final concentration of 1 μM cyclic nucleotide per assay tube (200,000 DPM). Enzyme activity was determined at 37° C. Reactions were terminated by boiling, incubating with snake venom, and cooling as previously described (Thompson et al., 1979). The reaction mixture was applied to a (0.8×8.5 cm) column containing 0.4 g Dowex I-X8 affinity resin; reaction tubes were rinsed with 0.5 mL of methanol; and this, along with an extra 1 mL of methanol, was applied to the column to elute the ^3 H-reaction products. After all liquid has passed through the column, the column was plunged with a 12 cc syringe plunger. Each column's eluate was collected in a 20 mL scintillation vial containing 10 mL aquasol-2 and counted by scintillation spectrophotometry. [^3 H]-adenosine or [^3 H]-guanosine recovery was corrected for background DPM determined in the absence of enzyme. The amount of enzyme and duration of assay were adjusted to ensure that less than 25% of the substrate was consumed under these conditions.
Measurements: Inhibition by a test compound was measured as a percent reduction of total PDE activity, and calculated as follows: [formula] where A is the PDE activity (mean DPM-background DPM) in the presence of test compound, and B is the total PDE-IV activity (mean DPM-background DPM) in the absence of test compound. […]

[2] = Serum Calcium/Plasma Calcitonin Determination Assay (acute/subacute, rats); type: in vivo, Sprague Dawley rats; details: subacute, sc, n=8, 30 mg/kg/2x/day; for % Decrease Serum Calcium: Examples 4 and 7 marked * (p<0.05 vs. vehicle); for % Increase Plasma Calcitonin: Examples 5 and 7 marked * (p<0.05 vs. vehicle)
Experimental: This assay was used to evaluate the ability of a test compound to decrease serum calcium and increase plasma calcitonin in rats using either an acute or sub-acute protocol. […]
Subacute Administration Study: After 72 hours acclimatization, young male or female Sprague Dawley rats weighing 170-250 g were randomly divided in groups of 8. The rats were fasted and given deionized H2 O 18 hours prior to the start of the study. The purpose of the fasting is to reduce the variability in serum calcium and plasma calcitonin levels. Each rat was weighed.
C-G Test Compounds 30 mg/kg/2x/day ip or sc
^b In vehicle and test compound groups, the treatments that the
Measurements: Body weight, serum calcium levels and plasma calcitonin levels.
Data Evaluations: The difference in serum calcium and plasma calcitonin between a treatment group and the vehicle group was determined using a one-way analysis of variance with Dunnett's test, or other multiple comparison methods. Compounds were designated active if .rho.<0.05 vs. vehicle value.

[3] = tested on: promoter region of the human calcitonin gene (luciferase reporter, C1-3 cells); experiment: Calcitonin/Luciferase Reporter Gene Expression Assay; details: Homo sapiens, C13, 12 h, read-out: TAR (transcription activation ratio)
Experimental: (§1) This assay was used to determine the ability of a compound to stimulate transcription of a luciferase reporter gene regulated by 3 kb of the promoter region of the human calcitonin gene.
(§2) C1-3 cells were plated at a density of 6,500-7,500 cells per well in a 96-plate microtiter plate. Twenty-four to forty-eight hours later, compounds were added to the wells in triplicate. Compounds were tested at a concentration of 10 μg/mL in 0.5% DMSO.
(§3) The production of light is measured on a luminometer.
(§4) TAR Ratio: Stimulation of calcitonin promoter-dependent transcription is expressed as a ratio of luciferase activity (LUCI) in the presence of test compound compared to the LUCI activity in the untreated control: [formula]

[4] = tested on: C1-3 cell line (calcitonin secretion); experiment: Calcitonin Secretion/RIA Assay; type: cell-based, human; details: active if >2.5; for fold induction at 30 µM: Homo sapiens, C13, ratio of calcitonin secretion vs untreated control; for Secretion Ratio: 30 μM, ratio of calcitonin secretion vs untreated control
Experimental: Cell Line: C1-3 (Parent Cell Line: TT-medullary thyroid carcinoma),
Reagent A--(Anti-Calcitonin)
Regent C--(Anti-Goat Precipitant)
Regent D--(Zero Standard).
Reagents E-I--(Calcitonin Standards)
Reagents J-K (Calcitonin Controls: Level and Level 2)
1. Glass tubes were labeled to include Total Count (TC), Nonspecific Binding (NSB), Maximum Binding (Bo), Standards, Controls and Patient Sera in duplicate.
2. […] of Standard Zero (Reagent D) was added to tubes 3 through 6 (NSB and Bo).
3. […] of Standards* (Reagents E-1) was added to tubes 7-16 as follows:
4. […] of Patient Serum 1 was added to tubes 21 and 22, Patient Serum 2 was added to tubes 23 and 24, etc.
5. […] of Reagent L (NSB Buffer) was added to tubes 3 and 4.
6. […] of Reagent A (Anti-Calcitonin) was added to all tubes except tubes 1 & 2 (TC) and tube 3 & 4 (NSB). All tubes were vortexed, covered with parafilm or foil and incubated 44±6 hours at 2-8° C.
7. […] All tubes were vortexed, covered with parafilm or foil and incubated 22±3 hours at 2-8° C.
8. Reagent C (Anti-Goat Precipitant) was mixed gently but thoroughly by inverting the vial several times before use. 1 mL Reagent C was added to all tubes except 1 and 2 (TC). Tubes were vortexed and incubated 20 minutes at room temperature.
9. All tubes were centrifuged at 1300-1500×g for 15 minutes at 2-8° C.
10. Supernatant was decanted immediately after centrifugation taking care to leave the precipitate intact.
11. Tubes were counted 4 minutes or longer.
Secretion Ratio: Stimulation of calcitonin secretion is expressed as a ratio of secretion activity in the presence of test compound compared to the secretion activity in the untreated control: [formula]

[5] = tested on: promoter region of the human calcitonin gene (luciferase reporter, C1-3 cells); details: c1-3 tt cells, 12 h, 30 µM
Experimental: as §1, §2, §3, §4

TAR (transcription activation ratio) [5] | Secretion Ratio [4] | Compound | % Inhibition of PDE IV (normalized to rolipram) [1] [%] | % Decrease Serum Calcium [2] [%] | % Increase Plasma Calcitonin [2] [%] | fold induction at 30 µM [3] | fold induction at 30 µM [4]
– | – | CCCCn1c(=O)c2nn(S(=O)(=O)c3cc(Cl)c(Cl)s3)cc2n(CCCC)c1=O [Example 6, 4,6-Dibutyl-2-(4,5-dichloro-thiophene-2-sulfonyl)-2,4-dihydro-pyrazolo[4,3-d]pyrimidine-5,7-dione] | 100 | 0 | 12 | 1.69 | 3.4
– | – | CCCCn1c(=O)c2nn(S(=O)(=O)c3ccc(C(C)(C)C)cc3)cc2n(CCCC)c1=O [Example 5, 4,6-Dibutyl-2-(4-tert-butyl-benzenesulfonyl)-2,4-dihydro-pyrazolo[4,3-d]pyrimidine-5,7-dione] | 63 | 1 | 101 | 2.27 | 4.5
– | – | CCCCn1c(=O)c2nn(S(=O)(=O)c3ccc4ccccc4c3)cc2n(CCCC)c1=O [Example 4, 4,6-Dibutyl-2-(2-naphthalenesulfonyl)-2,4-dihydro-pyrazolo[4,3-d]pyrimidine-5,7-dione] | 33 | 5 | 8 | 1.75 | 4.91
2.14 | 3.23 | 4,6-Dibutyl-1-(3,5-dimethyl-isoxazole-4-sulfonyl)-1,4-dihydro-pyrazolo[4,3- d]pyrimidine-5,7-dione [Example 8] | 26 | – | – | – | –
– | – | CCCCn1c(=O)c2cn(S(=O)(=O)c3c(C)nn(C)c3Cl)nc2n(CCCC)c1=O [Example 7] | – | 4 | 80 | 2.13 | 2.92
1.43 | 2.90 | 4,6-Dibutyl-1-ethanesulfonyl-1,4-dihydro-pyrazolo[4,3-d]pyrimidine-5,7-dion [Example 10] | 45 | – | – | – | –
